Literature values in publication PMC5525545 (Nature, 2017).
One block for each compound: values may come before it.

Legend:
AT2R = conditions: activation of AT2R
[1] = patients with post-herpetic neuralgia
[2] = system: AngII-induced neuronal excitability
[3] = several neuropathic pain models in rodents

SMILES: CCCCOC(=O)NS(=O)(=O)c1sc(CC(C)C)cc1-c1ccc(Cn2ccnc2)cc1 [Compound 21]
beneficial in vivo effects (AT2R): inducing pressure natriuresis, lowering blood pressure, conferring acute vaso-relaxation, and exhibiting organ protective effects

SMILES: COc1ccc2c(c1OCc1ccccc1)C[C@@H](C(=O)O)N(C(=O)C(c1ccccc1)c1ccccc1)C2 [EMA401]
efficacy in phase II clinical trials [1]: demonstrated efficacy

oral bioavailability [3]: exhibits oral bioavailability
SMILES: Cc1cc(Cn2cnc3c2C[C@@H](C(=O)O)N(C(=O)C(c2ccccc2)c2ccccc2)C3)ccc1N(C)C [PD123319]
effect on AngII-induced neuronal excitability [2]: blocks AngII-induced neuronal excitability
